Measurements from patent publication US20150297741A1, “BIO-ORTHOGONAL DRUG ACTIVATION” (TAGWORKS PHARMACEUTICALS B.V., priority 2012, published 2015).
Read-outs that look alike come from different tables or passages of the source.

How the values were obtained:
[1] = Tetrazine-induced doxorubicin release from Axial-TCO-1-Doxorubicin in PBS/MeCN (LCMS)
Description: PBS/MeCN (1 mL, 3/1), preheated at 37° C. and TCO-2-doxorubicin (10 μL of a 2.5 mM solution in DMSO, 1 eq.) were added to a preheated injection vial. Tetrazine (10 μL of a 25 mM solution in DMSO, 10 eq.) was added and the vial was vortexed. After incubation for 1 hour at 37° C., the vial was placed in LC-MS autosampler at 10° C. LC-MS analysis was performed using a 5% to 100% H2O/MeCN gradient over 11 minutes with a C18 reverse-phase column at 35° C. A control sample containing only TCO-2-doxorubicin (1 eq), as well as a sample containing only doxorubicin (1 eq.), was analyzed under the same conditions. All tetrazine containing samples were measured twice and the doxorubicin control sample was run after every three other samples during an overnight program. The peak area of released dox was divided by the peak area of TCO-2-doxorubicin or doxorubicin reference signals and multiplied by 100 to calculate the percentage of release. The calculated percentage of release was corrected when it was observed that the TCO-2-doxorubicin was not fully converted to inv-DA adduct(s). This was done by quantification of remaining dox-TCO, but full conversion was almost always observed. Peak areas (used for doxorubin quantification) were determined at A=470-500 nm where characteristic doxorubicin absorption takes place and peak integration was done by hand.
(§1) In a similar fashion as Example 3, the release of doxorubicin from TCO-1-doxorubucin as induced by tetrazines 1,8,9 in PBS/ACN and in serum was measured.

[2] = Tetrazine-induced doxorubicin release from Axial-TCO-1-Doxorubicin in serum (HPLC-MS/PDA); parameters: species or system mouse; conditions: 37° C.
Description: as §1
Serum experiments were conducted as follows:
TCO-1-doxorubucin (6.25×10^−8 mol) was dissolved in DMSO (0.050 mL), and PBS (0.475 mL) was added slowly in aliquots of 0.010 mL, followed by mouse serum (0.475 mL). […] Subsequently, cold MeCN (0.200 mL) was added, followed by centrifugation at 13400 rpm for 5 min. The supernatant was used for further analysis by HPLCMS/PDA analysis to determine the release of doxorubicin.

[3] = Stability of a TCO compound under various conditions (HPLC-MS/PDA and/or GC-MS); assay type: physicochemical; conditions: for half-life at 2.3 mM: read-out: Stability of TCO: t1/2
Description: The TCO stock solution (10 μL 25 mM; 2.5*10^−7 mol) was added to a solution of the specific condition (100 μL). The mixture was stirred at the specific condition for a certain amount of time, and then the fate of the TCO compound was monitored by HPLC-MS/PDA analysis and/or GC-MS analysis, and an estimation of its stability was made.
(§2) Conditions: A) in acetonitrile with 5 equivalents of pyridine per TCO at 20° C.
B) in acetonitrile with 5 equivalents of DIPEA per TCO at 20° C. C) in acetonitrile with 5 equivalents of piperidine per TCO at 20° C. D) in acetonitrile with 5 equivalents of n-butylamine per TCO at 20° C. E) in acetonitrile with 5 equivalents of 2-mercaptoethanol per TCO at 20° C. F) in tetrahydrofuran with 5 equivalents of triphenylphosphine per TCO at 20° C. G) in acetonitrile with 5 equivalents of DCC per TCO at 20° C. H) in acetonitrile with 5 equivalents of PyBOP per TCO at 20° C. […] J) in chloroform at 20° C. […] L) in chloroform with 1 v % of trifluoroacetic acid at 20° C. M) in chloroform with 10 v % of trifluoroacetic acid at 20° C. N) in chloroform with 33 v % of trifluoroacetic acid at 20° C. Z) in 25% acetonitrile in water at 20° C.

[4] = Tetrazine-induced deprotection (TCO activation) under various conditions
Description: In addition, the tetrazine-induced TCO activation was studied under the same conditions. […] In addition to amines, also hydroxy and carboxylic acids form stable conjugates with TCO and can subsequently be cleaved in a range of conditions.
The TCO stock solution (10 μL 25 mM in acetonitrile; 2.5*10^−7 mol) was added to a solution of the specific condition (100 μL). A solution of 3,6-dimethyl-1,2,4,5-tetrazine (8, 20 uL 25 mM in acetonitrile; 5.0*10^−7 mol) was added, and the mixture was stirred at the specific condition for a certain amount of time. The reaction was monitored by HPLC-MS/PDA analysis and/or GC-MS analysis, and the percentage of deprotection was estimated.
as §2
B) in acetonitrile with 5 equivalents of DIPEA per TCO at 20° C. C) in acetonitrile with 5 equivalents of piperidine per TCO at 20° C. D) in acetonitrile with 5 equivalents of n-butylamine per TCO at 20° C. E) in acetonitrile with 5 equivalents of 2-mercaptoethanol per TCO at 20° C. F) in tetrahydrofuran with 5 equivalents of triphenylphosphine per TCO at 20° C. G) in acetonitrile with 5 equivalents of DCC per TCO at 20° C. H) in acetonitrile with 5 equivalents of PyBOP per TCO at 20° C. I) in acetonitrile with 1 v % of formic acid at 20° C. J) in chloroform at 20° C. K) in chloroform with 1 v % of formic acid at 20° C. L) in chloroform with 1 v % of trifluoroacetic acid at 20° C. M) in chloroform with 10 v % of trifluoroacetic acid at 20° C. N) in chloroform with 33 v % of trifluoroacetic acid at 20° C. Z) in 25% acetonitrile in water at 20° C.

[5] = 0.1M HCOOH buffer, pH = 2.0 for 2 day, 20° C.
[6] = 0.1M NH3 buffer, pH = 11 for 5 day, 20° C.
[7] = 0.1M NH4OAc buffer, pH = 7.0 for 5 day, 20° C.
[8] = 0.1M NH4OAc buffer, pH = 8.0 for 8 day, 20° C.
[9] = 0.1M NH4OAc buffer, pH = 9.0 for 8 day, 20° C.
[10] = 0.1M NH4OAc buffer, pH = 10.0 for 8 day, 20° C.
[11] = 10% MeCN in H2O at 70° C. for 5 day
[12] = 10% MeCN in H2O for 5 day, 20° C.
[13] = with 5 eq. of DIPEA in MeCN for 16 h, 20° C.
[14] = with 5 eq. of HCOOH in MeCN for 16 h, 20° C.
[15] = with 5 eq. of PyBOP in MeCN for 16 h, 20° C.
[16] = with 5 eq. of pyridine in MeCN for 16 h, 20° C.

COc1cccc2c1C(=O)c1c(O)c3c(c(O)c1C2=O)C[C@@](O)(C(=O)CO)C[C@@H]3O[C@H]1CC(NC(=O)O[C@H]2/C=C/CCCCC2)[C@H](O)C(C)O1 (stereo partly shown) [Axial-TCO-1-Doxorubicin]
Doxorubicin release (%) from Axial-TCO-1-Doxorubicin without tetrazine ([1]; no tetrazine, 37° C., PBS (72 h), column PBS/MeCN (3/1)): 0% | Doxorubicin release (%) from Axial-TCO-1-Doxorubicin without tetrazine ([2]; no tetrazine, serum (24 h)): 0%

COc1cc(COC(=O)NC2CC/C=C/CC[C@@H]2N)cc(OC)c1OC (stereo partly shown)
Stability of TCO [3, 5]: stable | Stability of TCO: cyclization [3, 6]: < 5% | Stability of TCO [3, 7]: stable | Stability of TCO [3, 8]: stable | Stability of TCO [3, 9]: stable | Stability of TCO [3, 10]: stable | Stability of TCO: cyclization [3, 11]: <5% | Stability of TCO [3, 12]: stable | Deprotection (%) [4, 5]: 0% | Deprotection (%) [4, 6]: 87% | Deprotection (%) [4, 7]: 0% | Deprotection (%) [4, 8]: 0% | Deprotection (%) [4, 9]: 25% | Deprotection (%) [4, 10]: 81% | Deprotection (%) [4, 11]: 50% | Deprotection (%) [4, 12]: 0%

N[C@H]1CC/C=C/CCC1NC(=O)Oc1ccccc1 (stereo partly shown)
half-life at 2.3 mM ([3]; 0.1M NH4OAc buffer, pH = 7.0, 20° C.): 4800 min | half-life at 2.3 mM ([3]; 0.1M NH4OAc buffer, pH = 8.0, 20° C.): 1020 min | half-life at 2.3 mM ([3]; 0.1M NH4OAc buffer, pH = 9.0, 20° C.): 318 min | Stability of TCO: cyclization [3, 13]: 6.7% | Stability of TCO: cyclization [3, 14]: 1.9% | Stability of TCO: cyclization [3, 15]: 5.9% | Stability of TCO: cyclization [3, 16]: 2.6% | Deprotection (%) [4, 13]: 98.8% | Deprotection (%) [4, 14]: 33.9% | Deprotection (%) [4, 15]: 24.4% | Deprotection (%) [4, 16]: 71.7%

NC1/C=C/CCCCC1NC(=O)Oc1ccccc1 (stereo not shown)
half-life at 2.3 mM ([3]; in PBS buffer, 20° C.): 3900 min

NC1CCCC/C=C/C1NC(=O)Oc1ccccc1 (stereo not shown)
half-life at 2.3 mM ([3]; in PBS buffer, 20° C.): 1740 min

Cc1nnc(C)nn1 [tetrazine 8, 3,6-dimethyl-1,2,4,5-tetrazine]
Doxorubicin release (%) from Axial-TCO-1-Doxorubicin ([1]; 10 equiv. tetrazine, 25% MeCN in PBS (PBS/MeCN 3/1), 37° C., LCMS at 4 h, n = 3): 79 ± 3% | release of doxorubicin from TCO-1-doxorubucin, comparison of tetrazines 1, 8, 9 ([1]; PBS/ACN and serum): highest release | Doxorubicin release (%) from Axial-TCO-1-Doxorubicin ([2]; 10 equiv. tetrazine, 50% serum, LCMS at 4 h, n = 3): 75 ± 4%
